Assay results taken from ChEMBL document CHEMBL2163337, “Trigohowilols A-G, degraded diterpenoids from the stems of Trigonostemon howii” (J Nat Prod, 2012).
pIC50: −log10 of the molar value. Converted amounts (≈) assume the structure as drawn.

How the values were obtained:
[1] = test system: Staphylococcus aureus; experiment: Antibacterial activity against Staphylococcus aureus ATCC 25923 by two-fold dilution method; format: functional
[2] = test system: MCF7; experiment: Cytotoxicity against human MCF7 cells by MTT assay; format: functional, cell-based
[3] = test system: SMMC-7721; experiment: Cytotoxicity against human SMMC7721 cells by MTT assay; format: functional, cell-based
[4] = test system: Pseudomonas aeruginosa; experiment: Antibacterial activity against Pseudomonas aeruginosa ATCC 27853 by two-fold dilution method; format: functional
[5] = test system: HL-60; experiment: Cytotoxicity against human HL60 cells by MTT assay; format: functional, cell-based
[6] = test system: Staphylococcus aureus; experiment: Antibacterial activity against methicillin-resistant Staphylococcus aureus clinical isolate 98 by two-fold dilution method; format: functional
[7] = test system: Staphylococcus aureus; experiment: Antibacterial activity against methicillin-resistant Staphylococcus aureus clinical isolate 92 by two-fold dilution method; format: functional
[8] = test system: SW480; experiment: Cytotoxicity against human SW480 cells by MTT assay; format: functional, cell-based
[9] = test system: A549; experiment: Cytotoxicity against human A549 cells by MTT assay; format: functional, cell-based

Compound | MIC [1] | pIC50 [2] | pIC50 [3] | MIC [4] | pIC50 [5] | MIC [6] | MIC [7] | pIC50 [8] | pIC50 [9]
COc1cc2c3c(cc(O)c2cc1C)C(C)(C)C(=O)C=C3 [TRIGOHOWILOL A] | 25 µg/mL (≈ 88.5 µM) | < 4.40 | < 4.40 | 25 µg/mL (≈ 88.5 µM) | 4.60 | 25 µg/mL (≈ 88.5 µM) | 25 µg/mL (≈ 88.5 µM) | < 4.40 | 4.45
Cc1cc2ccc3c(c2cc1O)C=C(O)C(=O)C3(C)C [TRIGOHOWILOL B] | 25 µg/mL (≈ 93.2 µM) | < 4.40 | < 4.40 | 25 µg/mL (≈ 93.2 µM) | < 4.40 | 50 µg/mL (≈ 186 µM) | 50 µg/mL (≈ 186 µM) | < 4.40 | < 4.40
Cc1cc2c(cc1O)C1=C(C3=Cc4c(cc(O)c5cc(C)c(O)cc45)C(C)(C)C3=O)C(=O)C(C)(C)C1=CC2=O [TRIGOHOWILOL C] | 25 µg/mL (≈ 48 µM) | < 4.40 | < 4.40 | 25 µg/mL (≈ 48 µM) | < 4.40 | 25 µg/mL (≈ 48 µM) | 25 µg/mL (≈ 48 µM) | < 4.40 | < 4.40
COc1cc2c3c(cc(O)c2cc1C)C(C)(C)C(=O)C(C1=C2C(=CC(=O)c4cc(C)c(O)cc42)C(C)(C)C1=O)=C3 [TRIGOHOWILOL D] | 12.5 µg/mL (≈ 23.4 µM) | < 4.40 | < 4.40 | 25 µg/mL (≈ 46.8 µM) | 4.61 | 12.5 µg/mL (≈ 23.4 µM) | 12.5 µg/mL (≈ 23.4 µM) | < 4.40 | < 4.40
COc1cc2c(cc1C)C(=O)C=C1C2=C(C2=Cc3c(cc(O)c4cc(C)c(O)cc34)C(C)(C)C2=O)C(=O)C1(C)C [TRIGOHOWILOL E] | 6.25 µg/mL (≈ 11.7 µM) | 4.90 | 5.49 | 50 µg/mL (≈ 93.5 µM) | 5.58 | 12.5 µg/mL (≈ 23.4 µM) | 25 µg/mL (≈ 46.8 µM) | 5.03 | 5.01
COc1cc2c(cc1C)C(=O)C=C1C2=C(C2=Cc3c(cc(O)c4cc(C)c(OC)cc34)C(C)(C)C2=O)C(=O)C1(C)C [TRIGOHOWILOL F] | 12.5 µg/mL (≈ 22.8 µM) | 5.38 | 5.63 | 25 µg/mL (≈ 45.6 µM) | 5.60 | 12.5 µg/mL (≈ 22.8 µM) | 12.5 µg/mL (≈ 22.8 µM) | 5.45 | 5.44
COc1cc2c(cc1C)C(=O)C=C1C2=C(C2=C3C(=CC(=O)c4cc(C)c(OC)cc43)C(C)(C)C2=O)C(=O)C1(C)C [TRIGOHOWILOL G] | > 50 µg/mL | 4.81 | 5.56 | > 50 µg/mL | 4.75 | > 50 µg/mL | > 50 µg/mL | 5.08 | 5.27
CN[C@H](CC(C)C)C(=O)N[C@H]1C(=O)N[C@@H](CC(N)=O)C(=O)N[C@H]2C(=O)N[C@H]3C(=O)N[C@H](C(=O)N[C@H](C(=O)O)c4cc(O)cc(O)c4-c4cc3ccc4O)[C@H](O)c3ccc(c(Cl)c3)Oc3cc2cc(c3O[C@@H]2O[C@H](CO)[C@@H](O)[C@H](O)[C@H]2O[C@H]2C[C@](C)(N)[C@H](O)[C@H](C)O2)Oc2ccc(cc2Cl)[C@H]1O.Cl [VANCOMYCIN HYDROCHLORIDE] | 0.78 µg/mL |  |  | 0.78 µg/mL |  | 0.78 µg/mL | 0.78 µg/mL |  | 
